# Measurements as given in ChEMBL document CHEMBL1141522, “Reduced cardiac side-effect potential by introduction of polar groups: discovery of NIBR-1282, an orally bioavailable CCR5 antagonist which is active in vivo” (Bioorg Med Chem Lett, 2008).
# Active and inactive are the calls of the source. The rule behind the calls is not given here.
# Legend:
# Heart [1] = assay: Toxicity in isolated rabbit heart model assessed as adverse side effect upto 1.0 uM; format: tissue-based, Oryctolagus cuniculus; conditions: ex_vivo
# [2] = target: T1, C-C chemokine receptor type 5 (Homo sapiens, UniProt P51681); assay: Displacement of [125I]RANTES from human CCR5 expressed in CHO cells; format: cell-based
# T1 sequence (P51681 whole entry): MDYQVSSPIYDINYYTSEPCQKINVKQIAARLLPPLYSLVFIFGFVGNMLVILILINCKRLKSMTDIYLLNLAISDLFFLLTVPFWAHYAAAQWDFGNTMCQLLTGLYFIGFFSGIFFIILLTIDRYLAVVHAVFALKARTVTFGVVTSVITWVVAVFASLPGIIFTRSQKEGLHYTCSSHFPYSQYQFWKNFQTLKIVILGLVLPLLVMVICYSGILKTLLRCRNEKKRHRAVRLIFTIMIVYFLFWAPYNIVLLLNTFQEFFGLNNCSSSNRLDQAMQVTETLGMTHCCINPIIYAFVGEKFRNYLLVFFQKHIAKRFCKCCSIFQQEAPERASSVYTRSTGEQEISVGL
# [3] = target: T2, C-C chemokine receptor type 5 (Macaca fascicularis, UniProt P61814); assay: Displacement of radiolabeled MIP-1alpha from cynomolgus monkey CCR5 expressed in CHO cells; format: cell-based
# Heart [4] = assay: Toxicity in isolated rabbit heart model assessed as adverse side effect upto 0.5 uM; format: tissue-based, Oryctolagus cuniculus; conditions: ex_vivo
# [5] = target: Voltage-gated inwardly rectifying potassium channel KCNH2 (Homo sapiens, UniProt Q12809); assay: Displacement of [3H]dofetilide from human ERG expressed in HEK293 cell membranes
# Chain of Voltage-gated inwardly rectifying potassium channel KCNH2 (Q12809 whole entry): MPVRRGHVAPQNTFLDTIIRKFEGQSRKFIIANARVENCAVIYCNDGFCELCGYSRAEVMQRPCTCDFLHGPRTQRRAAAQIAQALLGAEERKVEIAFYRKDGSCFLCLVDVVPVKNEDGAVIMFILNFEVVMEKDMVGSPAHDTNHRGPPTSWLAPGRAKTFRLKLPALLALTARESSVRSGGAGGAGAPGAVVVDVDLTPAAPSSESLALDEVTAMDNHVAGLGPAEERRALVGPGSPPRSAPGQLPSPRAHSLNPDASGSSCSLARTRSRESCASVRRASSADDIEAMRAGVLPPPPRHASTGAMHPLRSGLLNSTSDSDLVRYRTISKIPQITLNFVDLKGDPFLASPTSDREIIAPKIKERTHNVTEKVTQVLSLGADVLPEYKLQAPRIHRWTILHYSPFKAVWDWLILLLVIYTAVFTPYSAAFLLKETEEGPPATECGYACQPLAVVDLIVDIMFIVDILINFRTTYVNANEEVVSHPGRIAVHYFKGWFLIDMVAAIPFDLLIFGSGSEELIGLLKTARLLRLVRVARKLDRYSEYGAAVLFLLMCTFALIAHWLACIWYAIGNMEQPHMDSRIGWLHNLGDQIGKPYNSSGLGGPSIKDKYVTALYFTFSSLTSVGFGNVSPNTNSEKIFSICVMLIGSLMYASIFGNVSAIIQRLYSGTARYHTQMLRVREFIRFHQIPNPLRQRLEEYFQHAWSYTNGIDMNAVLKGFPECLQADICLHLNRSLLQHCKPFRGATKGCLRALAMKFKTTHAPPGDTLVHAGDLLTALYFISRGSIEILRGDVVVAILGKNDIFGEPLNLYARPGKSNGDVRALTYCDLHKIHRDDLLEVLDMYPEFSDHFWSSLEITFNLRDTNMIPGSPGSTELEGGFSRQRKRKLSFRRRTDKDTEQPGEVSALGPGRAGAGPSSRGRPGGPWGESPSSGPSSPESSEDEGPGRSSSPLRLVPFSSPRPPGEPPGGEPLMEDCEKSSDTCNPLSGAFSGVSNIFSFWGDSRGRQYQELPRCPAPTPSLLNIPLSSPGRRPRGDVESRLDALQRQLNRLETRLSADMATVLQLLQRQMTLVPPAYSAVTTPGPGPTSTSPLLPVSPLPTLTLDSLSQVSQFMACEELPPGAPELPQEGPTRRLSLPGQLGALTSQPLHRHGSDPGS
# Heart [6] = assay: Toxicity in isolated rabbit heart model assessed as adverse side effect upto 5.0 uM; format: tissue-based, Oryctolagus cuniculus
# Heart [7] = assay: Toxicity in isolated rabbit heart model assessed as adverse side effect upto 1.5 uM; format: tissue-based, Oryctolagus cuniculus
# [8] = target: C-X-C chemokine receptor type 4 (Homo sapiens) (UniProt P61073); assay: Inhibition of CXCR4 upto 1 uM
# Chain of C-X-C chemokine receptor type 4 (Homo sapiens) (P61073 whole entry): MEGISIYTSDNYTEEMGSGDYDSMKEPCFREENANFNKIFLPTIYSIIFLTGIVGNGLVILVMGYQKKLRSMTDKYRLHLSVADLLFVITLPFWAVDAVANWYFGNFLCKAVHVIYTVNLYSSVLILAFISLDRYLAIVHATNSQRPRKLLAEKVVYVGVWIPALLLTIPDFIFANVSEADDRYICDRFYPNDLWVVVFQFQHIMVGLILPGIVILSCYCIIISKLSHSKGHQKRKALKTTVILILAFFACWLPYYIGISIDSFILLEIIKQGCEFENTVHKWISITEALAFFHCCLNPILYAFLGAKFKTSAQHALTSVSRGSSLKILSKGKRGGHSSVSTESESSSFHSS
# [9] = AUC in cynomolgus monkey at 1 mg/kg, po; format: ADME, organism-based, Macaca fascicularis; set-up: dose 1 mg/kg, route oral; conditions: plasma
# [10] = Solubility at pH 7.4; format: physicochemical; conditions: buffer
# [11] = Protein binding in human plasma; format: ADME, cell-free
# [12] = Tmax in po dosed rat; format: ADME, organism-based; conditions: in vivo
# [13] = target: C-X-C chemokine receptor type 2 (Homo sapiens) (UniProt P25025); assay: Inhibition of CXCR2 upto 1 uM
# Cytochrome P450 2C19 = Cytochrome P450 2C19 (Homo sapiens, UniProt P33261); assay: Inhibition of CYP2C19; format: ADME
# Cytochrome P450 1A2 = Cytochrome P450 1A2 (Homo sapiens, UniProt P05177); assay: Inhibition of CYP1A2; format: ADME
# [14] = Protein binding in rat plasma; format: ADME, cell-free
# [15] = Intrinsic clearance in human liver microsomes; format: ADME, Microsome
# [16] = target: T1, C-C chemokine receptor type 5; assay: Antagonist activity at human CCR5 expressed in L1.2 cells assessed as MIP-1-alpha-induced Ca2+ mobilization; format: functional, cell-based
# [17] = target: C-C chemokine receptor type 2 (Homo sapiens) (UniProt P41597); assay: Inhibition of CCR2 upto 1 uM
# Chain of C-C chemokine receptor type 2 (Homo sapiens) (P41597 whole entry, looked up): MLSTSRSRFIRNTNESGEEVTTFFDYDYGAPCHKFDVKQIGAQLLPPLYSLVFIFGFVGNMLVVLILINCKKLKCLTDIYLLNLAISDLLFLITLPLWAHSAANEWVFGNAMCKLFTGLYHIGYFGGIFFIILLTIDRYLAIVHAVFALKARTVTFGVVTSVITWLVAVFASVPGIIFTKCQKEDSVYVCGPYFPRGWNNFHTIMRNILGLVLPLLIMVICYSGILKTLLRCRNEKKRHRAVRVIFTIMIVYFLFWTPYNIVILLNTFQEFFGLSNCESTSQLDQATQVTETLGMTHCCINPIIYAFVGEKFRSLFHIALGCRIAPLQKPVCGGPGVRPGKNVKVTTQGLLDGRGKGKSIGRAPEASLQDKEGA
# [18] = Half life in po dosed dog; format: ADME, organism-based, Canis lupus familiaris; conditions: in vivo
# [19] = target: C-C chemokine receptor type 5 (Mus musculus) (UniProt P51682); assay: Binding affinity to mouse CCR5
# Chain of C-C chemokine receptor type 5 (Mus musculus) (P51682 whole entry, looked up): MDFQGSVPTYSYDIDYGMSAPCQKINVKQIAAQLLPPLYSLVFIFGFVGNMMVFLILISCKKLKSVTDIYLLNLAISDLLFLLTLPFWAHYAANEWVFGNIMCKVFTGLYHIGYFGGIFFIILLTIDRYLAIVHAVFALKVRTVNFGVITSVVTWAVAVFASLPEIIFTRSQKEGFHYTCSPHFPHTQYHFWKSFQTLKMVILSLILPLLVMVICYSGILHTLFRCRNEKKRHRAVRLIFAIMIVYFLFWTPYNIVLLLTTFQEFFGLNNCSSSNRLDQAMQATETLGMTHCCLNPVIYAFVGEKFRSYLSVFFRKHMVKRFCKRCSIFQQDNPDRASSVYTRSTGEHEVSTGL
# [20] = Solubility in water; format: physicochemical
# [21] = Inhibition of muscarinic acetylcholine receptor at 1 uM
# [22] = Mean residence time in cynomolgus monkey; format: ADME, organism-based, Macaca fascicularis; conditions: in vivo
# Cynomolgus monkey [23] = assay: Prolongation of graft survival in cynomolgus monkey kidney transplantation model at 20 mg/kg, sc bid in presence of cyclosporine A; format: functional, Macaca fascicularis; conditions: route subcutaneous
# [24] = Permeability from basolateral to apical side of human Caco-2 cell membranes; format: ADME, cell-based; conditions: read-out: permeability (converted)
# Cynomolgus monkey [25] = assay: Prolongation of graft survival in cynomolgus monkey kidney transplantation model at 20 mg/kg, sc bid; format: functional, Macaca fascicularis; conditions: route subcutaneous
# [26] = Cmax in dog at 1 mg/kg, po; format: ADME, organism-based, Canis lupus familiaris; set-up: dose 1 mg/kg, route oral; conditions: in vivo
# [27] = Lipophilicity, log D at pH 6.8; format: physicochemical; conditions: buffer
# [28] = Partition coefficient, log P of the compound; format: physicochemical; conditions: octanol/water
# [29] = Oral bioavailability in dog; format: ADME, organism-based, Canis lupus familiaris; conditions: in vivo
# [30] = Intrinsic clearance in rat liver microsomes; format: ADME, Microsome
# [31] = target: T2, C-C chemokine receptor type 5; assay: Antagonist activity at cynomolgus monkey CCR5 expressed in CHO cells assessed as MIP-1-alpha-induced Ca2+ mobilization; format: functional, cell-based
# [32] = target: C-X-C chemokine receptor type 6 (Homo sapiens) (UniProt O00574); assay: Inhibition of CXCR6 upto 1 uM
# [33] = target: C-C chemokine receptor type 3 (Homo sapiens) (UniProt P51677); assay: Inhibition of CCR3 upto 1 uM
# [34] = Cmax in rat at 1 mg/kg, po; format: ADME, organism-based; set-up: dose 1 mg/kg, route oral; conditions: in vivo
# Cytochrome P450 3A4 = Cytochrome P450 3A4 (Homo sapiens, UniProt P08684); assay: Inhibition of CYP3A4; format: ADME
# [35] = AUC in dog at 1 mg/kg, po; format: ADME, organism-based, Canis lupus familiaris; set-up: dose 1 mg/kg, route oral; conditions: plasma
# [36] = Oral bioavailability in rat; format: ADME, organism-based; conditions: in vivo
# [37] = target: C-C chemokine receptor type 1 (Homo sapiens) (UniProt P32246); assay: Inhibition of CCR1 upto 1 uM
# Chain of C-C chemokine receptor type 1 (Homo sapiens) (P32246 whole entry): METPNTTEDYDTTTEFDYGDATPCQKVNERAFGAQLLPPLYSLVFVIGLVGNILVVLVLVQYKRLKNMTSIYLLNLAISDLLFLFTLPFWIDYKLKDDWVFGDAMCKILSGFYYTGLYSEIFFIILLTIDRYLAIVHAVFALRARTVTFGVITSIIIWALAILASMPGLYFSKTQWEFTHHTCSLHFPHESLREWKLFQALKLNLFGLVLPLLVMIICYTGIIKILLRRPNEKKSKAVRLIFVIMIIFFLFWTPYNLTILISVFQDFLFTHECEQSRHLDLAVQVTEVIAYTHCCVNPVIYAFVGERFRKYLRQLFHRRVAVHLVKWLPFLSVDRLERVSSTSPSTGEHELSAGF
# [38] = target: T1, C-C chemokine receptor type 5; assay: Antagonist activity at human CCR5 expressed in CHO cells assessed as MIP-1-alpha-induced Ca2+ mobilization; format: functional, cell-based
# [39] = target: C-X-C chemokine receptor type 3 (Homo sapiens) (UniProt P49682); assay: Inhibition of CXCR3 upto 1 uM
# [40] = target: C-X-C chemokine receptor type 1 (Homo sapiens) (UniProt P25024); assay: Inhibition of CXCR1 upto 1 uM
# Chain of C-X-C chemokine receptor type 1 (Homo sapiens) (P25024 whole entry): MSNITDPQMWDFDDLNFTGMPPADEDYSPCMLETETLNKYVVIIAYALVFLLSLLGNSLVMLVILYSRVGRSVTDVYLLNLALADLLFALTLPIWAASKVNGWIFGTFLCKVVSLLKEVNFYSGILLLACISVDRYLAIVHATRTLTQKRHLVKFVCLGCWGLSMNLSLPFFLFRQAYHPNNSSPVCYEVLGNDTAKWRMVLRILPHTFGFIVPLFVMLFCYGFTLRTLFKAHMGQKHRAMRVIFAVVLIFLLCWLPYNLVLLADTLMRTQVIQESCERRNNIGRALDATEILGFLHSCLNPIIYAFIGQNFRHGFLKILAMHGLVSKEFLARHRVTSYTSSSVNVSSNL
# Cytochrome P450 2C9 = Cytochrome P450 2C9 (Homo sapiens, UniProt P11712); assay: Inhibition of CYP2C9; format: ADME
# [41] = Half life in po dosed cynomolgus monkey; format: ADME, organism-based, Macaca fascicularis; conditions: in vivo
# Cynomolgus monkey [42] = assay: Prolongation of graft survival in cynomolgus monkey kidney transplantation model at 40 mg/kg, po qd in presence of cyclosporine A; format: functional, Macaca fascicularis
# Cytochrome P450 2D6 = Cytochrome P450 2D6 (Homo sapiens, UniProt P10635); assay: Inhibition of CYP2D6; format: ADME
# Chain of Cytochrome P450 2D6 (P10635 whole entry): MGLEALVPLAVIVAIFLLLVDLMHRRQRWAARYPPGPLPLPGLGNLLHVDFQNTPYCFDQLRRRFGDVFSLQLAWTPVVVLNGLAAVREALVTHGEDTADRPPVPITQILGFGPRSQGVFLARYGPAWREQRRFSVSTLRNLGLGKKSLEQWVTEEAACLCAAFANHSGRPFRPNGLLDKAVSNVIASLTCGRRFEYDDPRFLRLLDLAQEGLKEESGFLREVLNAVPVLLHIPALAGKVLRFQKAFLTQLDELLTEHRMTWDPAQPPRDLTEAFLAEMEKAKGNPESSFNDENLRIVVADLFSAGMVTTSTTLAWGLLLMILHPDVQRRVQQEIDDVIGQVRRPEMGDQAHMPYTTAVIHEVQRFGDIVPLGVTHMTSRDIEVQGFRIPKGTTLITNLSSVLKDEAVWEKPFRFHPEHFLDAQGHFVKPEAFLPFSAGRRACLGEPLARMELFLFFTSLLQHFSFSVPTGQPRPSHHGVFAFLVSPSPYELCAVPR
# [43] = target: C-C chemokine receptor type 6 (Homo sapiens) (UniProt P51684); assay: Inhibition of CCR6 upto 1 uM
# [44] = Mean residence time in dog; format: ADME, organism-based, Canis lupus familiaris; conditions: in vivo
# [45] = Dissociation constant, pKa of the compound; format: physicochemical
# [46] = target: C-C chemokine receptor type 7 (Homo sapiens) (UniProt P32248); assay: Inhibition of CCR7 upto 1 uM
# Chain of C-C chemokine receptor type 7 (Homo sapiens) (P32248 whole entry): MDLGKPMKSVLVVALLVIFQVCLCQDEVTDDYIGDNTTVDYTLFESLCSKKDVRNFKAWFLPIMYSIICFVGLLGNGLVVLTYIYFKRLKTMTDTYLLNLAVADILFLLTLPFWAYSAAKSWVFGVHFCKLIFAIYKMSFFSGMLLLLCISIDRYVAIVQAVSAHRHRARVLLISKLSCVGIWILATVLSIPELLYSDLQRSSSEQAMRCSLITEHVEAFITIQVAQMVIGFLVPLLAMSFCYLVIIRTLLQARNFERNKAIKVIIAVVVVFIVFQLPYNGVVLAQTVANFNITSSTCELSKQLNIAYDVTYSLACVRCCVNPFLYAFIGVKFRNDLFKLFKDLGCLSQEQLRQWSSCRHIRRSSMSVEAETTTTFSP
# [47] = Permeability from apical to basolateral side of human Caco-2 cell membranes; format: ADME, cell-based; conditions: read-out: permeability (converted)
# [48] = AUC in rat at 1 mg/kg, po; format: ADME, organism-based; set-up: dose 1 mg/kg, route oral; conditions: plasma
# [49] = Oral bioavailability in cynomolgus monkey; format: ADME, organism-based, Macaca fascicularis; conditions: in vivo
# [50] = Cmax in cynomolgus monkey at 1 mg/kg, po; format: ADME, organism-based, Macaca fascicularis; set-up: dose 1 mg/kg, route oral; conditions: in vivo
# [51] = target: C-C chemokine receptor type 4 (Homo sapiens) (UniProt P51679); assay: Inhibition of CCR4 upto 1 uM
# Chain of C-C chemokine receptor type 4 (Homo sapiens) (P51679 whole entry): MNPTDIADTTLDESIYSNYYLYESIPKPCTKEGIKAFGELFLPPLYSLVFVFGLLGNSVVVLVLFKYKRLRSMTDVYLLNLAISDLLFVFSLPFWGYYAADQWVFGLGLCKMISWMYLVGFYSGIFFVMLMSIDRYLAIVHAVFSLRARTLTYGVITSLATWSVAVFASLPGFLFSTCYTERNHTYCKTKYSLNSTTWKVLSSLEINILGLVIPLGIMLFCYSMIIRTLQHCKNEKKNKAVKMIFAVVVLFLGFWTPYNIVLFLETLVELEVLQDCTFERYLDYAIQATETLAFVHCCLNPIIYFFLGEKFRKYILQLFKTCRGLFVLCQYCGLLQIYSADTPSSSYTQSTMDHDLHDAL
# [52] = Tmax in po dosed dog; format: ADME, organism-based, Canis lupus familiaris; conditions: in vivo
# Heart [53] = assay: Toxicity in isolated rabbit heart model assessed as adverse side effect upto 10 uM; format: tissue-based, Oryctolagus cuniculus
# [54] = Tmax in po dosed cynomolgus monkey; format: ADME, organism-based, Macaca fascicularis; conditions: in vivo
# [55] = Half life in po dosed rat; format: ADME, organism-based; conditions: in vivo
structure (smiles),measurement,setting,value
CC1(N2CCC(N(c3ccccc3)c3cccnc3)CC2)CCN(C(=O)c2c(Cl)c[n+]([O-])cc2Cl)CC1,Activity,Heart [1],Non-toxic
same,IC50,[2],1 nM
same,IC50,[3],4.2 nM
CC1(N2CCC(N(c3ccccc3)c3cccnc3)CC2)CCN(C(=O)c2c(Cl)cncc2Cl)CC1,Activity,Heart [4],Non-toxic
same,IC50,[2],0.8 nM
same,IC50,[3],3.2 nM
Cc1nc(CN(c2ccccc2)C2CCN(C3(C)CCN(C(=O)c4c(C)cc[n+]([O-])c4C)CC3)CC2)cs1,IC50,[5],12200 nM
same,IC50,[2],1.7 nM
same,Activity,Heart [6],Non-toxic
same,IC50,[3],107 nM
Cc1cc[n+]([O-])c(C)c1C(=O)N1CCC(C)(N2CCC(N(Cc3cccc(C#N)c3)c3ccccc3)CC2)CC1,Activity,Heart [1],Non-toxic
Cc1cc[n+]([O-])c(C)c1C(=O)N1CCC(C)(N2CCC(N(c3ccccc3)c3ccccc3)CC2)CC1,Activity,Heart [4],Non-toxic
same,IC50,[3],3.4 nM
Cc1cccnc1C(=O)N1CCC(C)(N2CCC(N(c3ccccc3)c3cccnc3)CC2)CC1,Activity,Heart [4],Non-toxic
same,IC50,[2],6.5 nM
same,IC50,[3],39 nM
Cc1cccc(C)c1C(=O)N1CCC(C)(N2CCC(N(Cc3ccccc3)c3ccccc3)CC2)CC1,IC50,[5],670 nM
same,Activity,Heart [7],Non-toxic
Cc1cc[n+]([O-])c(C)c1C(=O)N1CCC(C)(N2CCC(N(Cc3ccccc3)c3ccccc3)CC2)CC1,Activity,Heart [4],Non-toxic
Cc1nc[n+]([O-])c(C)c1C(=O)N1CCC(C)(N2CCC(N(c3ccccc3)c3ccccc3)CC2)CC1,IC50,[5],1200 nM
same,Activity,Heart [7],Non-toxic
Cc1ccnc(C)c1C(=O)N1CCC(C)(N2CCC(N(c3ccccc3)c3ccccc3)CC2)CC1,Activity,Heart [4],Non-toxic
same,IC50,[5],570 nM
Cc1cccc(C)c1C(=O)N1CCC(C)(N2CCC(N(c3ccccc3)c3cccnc3)CC2)CC1,Activity,Heart [4],Non-toxic
same,IC50,[2],0.5 nM
same,IC50,[3],1.1 nM
Cc1ccnc(C)c1C(=O)N1CCC(C)(N2CCC(N(c3ccccc3)c3cccnc3)CC2)CC1,Activity,Heart [1],Non-toxic
same,IC50,[2],0.9 nM
same,IC50,[3],0.8 nM
Cc1ncnc(C)c1C(=O)N1CCC(C)(N2CCC(N(c3ccccc3)c3ccccc3)CC2)CC1,Activity,Heart [4],Non-toxic
Cc1cc[n+]([O-])c(C)c1C(=O)N1CCC(C)(N2CCC(N(c3ccccc3)c3cccnc3)CC2)CC1,Activity,[8],inactive
same,AUC,[9],0.503 µg·h/mL
same,solubility,[10],> 12.5 mg/mL
same,fraction unbound,[11],0.62
same,Tmax,[12],0.4 h
same,Activity,[13],inactive
same,IC50,Cytochrome P450 2C19,> 10000 nM
same,IC50,Cytochrome P450 1A2,> 10000 nM
same,fraction unbound,[14],0.48
same,microsomal CLint,[15],< 15 µL/min/mg
same,IC50,[16],16.2 nM
same,Activity,[17],inactive
same,half-life,[18],7.9 h
same,Activity,[19],inactive
same,solubility,[20],1 mg/mL
same,Activity,[21],inactive
same,MRT,[22],6 h
same,Activity,Cynomolgus monkey [23],>100 days
same,Papp B→A,[24],108 nm/s
same,Activity,Cynomolgus monkey [25],6 days
same,Cmax,[26],0.084 µg/mL
same,logD,[27],0.8
same,logP,[28],2.2
same,bioavailability,[29],56%
same,microsomal CLint,[30],< 15 µL/min/mg
same,IC50,[31],64 nM
same,Activity,[32],inactive
same,Activity,[33],inactive
same,IC50,[2],5.1 nM
same,Cmax,[34],0.0058 µg/mL
same,IC50,Cytochrome P450 3A4,5300 nM
same,AUC,[35],0.278 µg·h/mL
same,bioavailability,[36],22%
same,Activity,[37],inactive
same,IC50,[38],43.6 nM
same,Activity,[39],inactive
same,Activity,[40],inactive
same,IC50,Cytochrome P450 2C9,> 10000 nM
same,half-life,[41],6.3 h
same,Activity,Cynomolgus monkey [42],39 days
same,IC50,Cytochrome P450 2D6,> 10000 nM
same,Activity,[43],inactive
same,MRT,[44],8 h
same,pKa,[45],5.5
same,Activity,[46],inactive
same,IC50,[3],8.1 nM
same,Papp A→B,[47],6.67 nm/s
same,AUC,[48],0.041 µg·h/mL
same,bioavailability,[49],43%
same,Cmax,[50],0.093 µg/mL
same,Activity,[51],inactive
same,Tmax,[52],0.6 h
same,Activity,Heart [53],Non-toxic
same,Tmax,[54],0.5 h
same,half-life,[55],8.1 h
Cc1cccc(C)c1C(=O)N1CCC(C)(N2CCC(N(c3ccccc3)c3ccncc3)CC2)CC1,Activity,Heart [4],Non-toxic
same,IC50,[2],2 nM
same,IC50,[3],9.8 nM
Cc1cc[n+]([O-])c(C)c1C(=O)N1CCC(C)(N2CCC(N(c3ccccc3)c3ccccn3)CC2)CC1,Activity,Heart [1],Non-toxic
same,IC50,[2],1.8 nM
same,IC50,[3],12 nM
CC1(N2CCC(N(c3ccccc3)c3cccnc3)CC2)CCN(C(=O)c2cccc3ccccc23)CC1,Activity,Heart [1],Non-toxic
same,IC50,[2],1.3 nM
same,IC50,[3],3.6 nM
Cc1cccc(C)c1C(=O)N1CCC(C)(N2CCC(N(c3ccccc3)c3ccccc3)CC2)CC1,Activity,Heart [1],Non-toxic
same,IC50,[5],150 nM
